Assay results published in patent US11897898B2, “Pyridine macrocycle compounds as ASK1 inhibiting agents” (BIOGEN MA INC., priority 2018, dated 2024).

Target: T1, ASK1 T838 auto phosphorylation (Homo sapiens, UniProt Q99683)
T1 construct: ASK1-V5 tagged full length plasmid; expressed in transfected cells; host or cells: HEK-293T
T1 sequence (Q99683 1-1374): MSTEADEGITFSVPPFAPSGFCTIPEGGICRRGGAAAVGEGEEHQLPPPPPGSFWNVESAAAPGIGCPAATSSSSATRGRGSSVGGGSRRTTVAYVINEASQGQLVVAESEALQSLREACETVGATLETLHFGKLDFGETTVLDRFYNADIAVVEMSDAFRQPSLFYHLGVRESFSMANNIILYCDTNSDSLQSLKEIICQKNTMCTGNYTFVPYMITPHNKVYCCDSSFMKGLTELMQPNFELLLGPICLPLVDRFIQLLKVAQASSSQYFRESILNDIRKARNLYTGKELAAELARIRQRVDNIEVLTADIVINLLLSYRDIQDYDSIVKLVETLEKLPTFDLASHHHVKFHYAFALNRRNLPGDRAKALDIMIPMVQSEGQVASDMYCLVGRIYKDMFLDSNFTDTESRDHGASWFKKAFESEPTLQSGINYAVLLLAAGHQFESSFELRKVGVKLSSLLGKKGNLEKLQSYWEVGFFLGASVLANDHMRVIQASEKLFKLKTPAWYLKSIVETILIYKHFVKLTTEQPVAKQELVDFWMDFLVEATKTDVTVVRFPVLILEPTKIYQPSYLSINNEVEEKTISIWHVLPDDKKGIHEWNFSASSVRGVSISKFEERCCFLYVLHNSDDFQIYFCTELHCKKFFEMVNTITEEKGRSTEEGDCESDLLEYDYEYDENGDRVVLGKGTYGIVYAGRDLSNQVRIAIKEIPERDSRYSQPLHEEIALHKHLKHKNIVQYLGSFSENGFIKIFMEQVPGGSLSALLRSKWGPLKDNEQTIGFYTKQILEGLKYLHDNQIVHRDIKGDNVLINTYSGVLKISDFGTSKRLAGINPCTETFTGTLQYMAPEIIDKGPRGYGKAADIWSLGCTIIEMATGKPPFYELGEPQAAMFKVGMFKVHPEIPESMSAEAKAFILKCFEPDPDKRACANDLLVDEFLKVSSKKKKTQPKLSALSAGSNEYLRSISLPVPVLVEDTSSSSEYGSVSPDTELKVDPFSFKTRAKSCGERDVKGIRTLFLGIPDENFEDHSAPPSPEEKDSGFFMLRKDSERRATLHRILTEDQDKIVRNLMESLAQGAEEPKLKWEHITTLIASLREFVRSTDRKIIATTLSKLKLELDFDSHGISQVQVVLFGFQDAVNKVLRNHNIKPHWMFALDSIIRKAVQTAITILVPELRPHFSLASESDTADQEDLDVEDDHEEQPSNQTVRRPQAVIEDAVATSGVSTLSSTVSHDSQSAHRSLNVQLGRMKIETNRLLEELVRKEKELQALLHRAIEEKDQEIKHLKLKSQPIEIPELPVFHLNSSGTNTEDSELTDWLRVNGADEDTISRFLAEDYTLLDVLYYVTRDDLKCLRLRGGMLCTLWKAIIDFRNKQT
Assay: ASK1 (AUTO PHOS T838) assay in HEK-293T cells, MSD format
Assay type: cell-based
Conditions: HEK-293T cells transfected with ASK1-V5, 1 hr compound incubation; class symbols
Summary of the method: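 HEK-293T cells transiently expressing full-length V5-tagged ASK1, treated 1 h at 37 °C with compound (top 20 µM, 3-fold, 10 points). Lysates captured on anti-V5 and probed with anti-pASK1 T838 in MSD electrochemiluminescence format. IC50 from 4-parameter fit of normalized % activity.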

IC50 [nM] | Compound
100 to 1000 | C[C@H]1CCCOc2ncccc2C(=O)Nc2cccc(n2)-c2nncn21 (single isomer, unassigned) [Compound 4]
100 to 1000 | C[C@H]1CCCOc2ncc(C(F)(F)F)cc2C(=O)Nc2cccc(n2)-c2nncn21 (single isomer, unassigned) [Compound 41]
≤ 100 | C[C@H]1CCCOc2ncc(-c3ccncc3)cc2C(=O)Nc2cccc(n2)-c2nncn21 [Compound 17, (S)-10-Methyl-5^5-(pyridin-4-yl)-1^4H-6-oxa-3-aza-2(2,6),5(3,2)-dipyridina-1(3,4)-triazolacyclodecaphan-4-one]
≤ 100 | C[C@H]1CCCOc2ncc(Br)cc2C(=O)Nc2cccc(n2)-c2nncn21 (single isomer, unassigned) [Compound 1]
100 to 1000 | C[C@H]1CCCOc2ncc(C#N)cc2C(=O)Nc2cccc(n2)-c2nncn21 [Compound 38, (S)-10-Methyl-4-oxo-1^4H-6-oxa-3-aza-2(2,6),5(3,2)-dipyridina-1(3,4)-triazolacyclodecaphane-5^5-carbonitrile]
